Measured values: patent EP0123485A1, “Colon-specific prodrug, the preparation and uses thereof” (priority 1983, dated 1984)
Like-named read-outs stand apart in the source and are kept apart here.

Assays:
[1] = Rate of hydrolysis in homogenized distal small intestine contents; settings: for Sp. act. / Tot. act.: DSI contents, 1.0 mM prodrug, 37 C, release of free steroid by HPLC; for hydrolysis by DSI contents, comparison in words: homogenates of DSI contents
Excerpt: (§1) (The entire small intestine was divided into two, equal length segments to give PSI and DSI.) Gastrointestinal contents were obtained from male, Sprague-Dawley rats (300-400 g) which had been maintained on a stock diet (Purina rat chow) and water ad libitum. The intestinal contents of each section were pooled from four animals for each assay. […] Following removal, the contents were quickly weighed, then diluted to 100 milliliters (stomach, PSI, and DSI) or 200 milliliters (cecum) with cold 0.01 M phosphate buffer, pH 7.0. […] Homogenates were then stored on ice (ca 30 min). […] The reaction was run at 37 °C in a shaking water bath. The reaction was stopped after 10, 20, or 30 min by addition of 0.2 N NaOH (0.25 milliliters).
(§2) Stomach and PSI contents were diluted to 50 mL with 0.01 M phosphate buffer, pH 7.0, DSI contents to 25 mL, and cecal contents to 200 mL, prior to homogenization. The homogenates (2.1 mL of stomach, PSI, and DSI and 1.7 mL of cecum) were added to the appropriate substrate solution (0.01 M phosphate buffer, pH 7.0) to give 1.0 mM substrate in a total volume of 2.5 mL. At various times up to 30 min, aliquots (0.3 mL) were removed and quenched with MeOH (4.7 mL). After centrifugation (5,000 g, 10 min), the samples were diluted (1:1) with 0.01 M KH2PO4 and 20 microliters of the resulting solution was injected directly onto the HPLC column for analysis.

[2] = physchem; assay type: physicochemical
Experimental: The partitioning of prodrugs and free steroids between n-octanol and an aqueous phase (0.01 phosphate buffer, pH 7.0) were determined at 37 °C. Both octanol and buffer were saturated with the relevant aqueous or organic phase before use. […] The intitial concentration of steroid was 10 mM dissolved in the organic phase. The amount of glycoside and free steroid in the aqueous phase at equilibrium was measured spectrophotometrically at 239 nm for the dexamethasone and fludrocortisone compounds and 242 nm for the prednisolone and hydrocortisone compounds. The concentration of glycoside or free steroid in the octanol phase was determined by difference.

[3] = Rate of hydrolysis in homogenized proximal small intestine contents; settings: PSI contents; 1.0 mM prodrug, 37 C; release of free steroid by HPLC
[4] = Rate of hydrolysis in homogenized cecal contents; settings: cecal contents; 1.0 mM prodrug, 37 C; release of free steroid by HPLC
Excerpt: as §1, §2

[5] = Rate of hydrolysis in homogenized stomach contents; settings: 1.0 mM prodrug, 37 C, release of free steroid by HPLC
[6] = Recovery of steroid glycoside and free steroid from intestinal contents and tissues after intragastric administration; assay type: in vivo, Sprague-Dawley rats; settings: for animals in which the administered dose reached the cecum by the time of sacrifice: sixteen rats per glucoside, sacrifice at 3-6 h; for Recovery from the cecum / Recovery from the small intestine: average of 4 animals; for site of absorption of the free steroid: free steroid given orally (control experiments, FIGURE 4)
Experimental: Male, Sprague-Dawley rats (ca 250 g) were maintained on laboratory rat chow and water ad lib. These rats were fasted overnight (16 hr.) prior to administration of glucoside or free steroid. Water bottles were removed from the cages at least 30 min prior to drug administration. Prednisolone glucoside, 2, (7.5 mg) or dexamethasone glucoside, 1, (7.5 mg) was administered by gastric intubation as a solution (0.5 mL) of water/95% ethanol (3:1). Prednisolone, 4, (5.25 mg) or dexamethasone, 3, (5.1 mg) was administered as a solution (0.5 mL) of water/95% ethanol (1:1). After the appropriate interval of time -3, 4, 5 or 6 hr.- the animals were sacrificed by carbon dioxide anesthesia followed by thoractomy. The small intestine and cecum were removed and cut into segments. Contents were separated from the tissues by rinsing the segments with cold, 0.9% saline (5.0 mL). The contents were immediately diluted to 30 mL with methanol. The tissues were suspended in 0.01 M KH2P04 (5.0 mL). Then an internal standard, either prednisolone, 4, or dexamethasone, 3, depending on the experimental steroid, was added to all the samples. Both the contents and tissues were then homogenized with a Polytron Homogenizer (Brinkman Inst. Co.) at med. speed for 1-2 min. The contents were then diluted to 40 mL total volume with methanol. The tissues were diluted to 25 mL total volume with methanol. All the samples were centrifuged (5,000 g, 15 min) and then the supernatant solutions were passed through membrane filters (0.45 micrometers, Versapor 800). The samples (1.4 mL) were then diluted with 0.01 M KH2PO4 (0.6 mL) and 20 microliters of the resulting solution injected directly onto the HPLC column for analysis.

[7] = Incubation with homogenized rat feces; assay type: in vitro ADME
Experimental: Glucosides 1 and 2 (5.0 mg) were also incubated at 37 °C with homogenized rat feces (0.5 g/10 milliliters 0.01 M phosphate buffer, pH 7.5). The feces were obtained from rats maintained on a high cellulose diet. […] Aliquots (0.2 milliliters) were removed and quenched with MeOH (3.66 milliliters). After centrifugation (5,000g, 10 min), the samples were passed through membrane filters (0.45 micrometer pore, Versapor 450, Gelman Sciences, Inc.). They were then diluted (1:1) with 0.01 M KH2PO4. Twenty microliters of the resulting solution were injected directly onto the HPLC column for analysis.

[8] = tested on: beta-glucosidase (EC 3.2.1.21, from almonds); assay: Hydrolysis by commercial beta-glucosidase; assay type: biochemical; settings: 37 C, acetate buffer pH 5.0
Experimental: Prednisolone glucoside, 2, (5.0 mg) or dexamethasone glucoside, 1, (5.0 mg) was incubated at 37 °C in an […] acetate buffer, pH 5.0 (10.0 mL) with beta-glucosidase (EC 3.2.1.21, from almonds, one unit liberates 1.0 micromole of glucose from salicin per min at pH 5.0 at 370C). Prednisolone glucoside, 2, and dexamethasone glucoside, 1, were treated with 50 and 500 units of enzyme, respectively. At various times, aliquots (0.1 mL) were removed and quenched with methanol (9.9 mL).

[9] = KM(app) and Vmax determinations (Eadie-Hofstee plots); assay type: in vitro ADME, rat; settings: prodrug 0.5-48 micromolar, 0.8 mL cecal homogenate, 15 min, 37 C, release of free steroid by HPLC
Experimental: KM(app) and VMax Determinations. The KM(app)-Vmax for the hydrolysis of p-NP-glc and p-NP-gal were determined using pooled cecal homogenates (200 mL) as described above. A range of substrate (56-1000 micromolar; final volume 2.25 mL) concentrations, spanning their apparent KM, was used for each reaction. The amount of cecal homogenate used was 0.04 mL. Velocities were obtained, in duplicate, at 37 °C in a shaking water bath and the reaction stopped by addition of 0.2 N NaOH (0.25 mL) after 15 min. Release of p-nitrophenol was measured spectrophotometrically at 403 nm. Eadie-Hofstee plots were used to determine the KM(app) (micromolar) and Vmax (micromolar/min/g) of both reactions. The wet weight (g), measured immediately after removal and pooling, was used throughout.
Again, cecal contents from four rats were pooled, weighed, diluted (100 mL, 0.01 M phosphate buffer, pH 7.0) and homogenized. A range of substrate concentrations (0.5-48 micromolar, final volume 2.5 mL) spanning the apparent KM, was used for each reaction. The amount of cecal homogenate used was 0.8 mL. Reactions were run, in duplicate, at 37°C in a shaking water bath. After 15 min, the reactions were stopped by removing aliquots (0.3 mL) and quenching them with MeOH (4.7 mL). […] Again, Eadie-Hofstee plots were used to determine the KM(app) and VMax.

[10] = 0.01 m phosphate buffer, pH 7, Log P
[11] = in vivo, po, rat, 7.5 mg glucoside intragastric, estimated from unhydrolyzed glucoside in lower small intestine at 4 h, read-out: part of an oral dose of glucoside that reached (was delivered to) the cecum
[12] = rat, in vivo, po, 7.5 mg, 4 h after 7.5 mg glucoside, rat, read-out: administered dose recovered from the lower small intestine contents unhydrolyzed
[13] = 4 h after administration of 7.5 mg of glucoside 1
[14] = 5 h after administration of 7.5 mg of glucoside 1
[15] = 6 h after administration of 7.5 mg of glucoside 1

Row | Compound | Sp. act. [1] [nmoles/min/g wet weight] | Tot. act. [1] [µmol/min] | hydrolysis by DSI contents, comparison in words [1] | logD at 0.5 h [2, 10] | Sp. act. [3] [nmoles/min/g wet weight] | Tot. act. [3] [µmol/min] | Sp. act. [4] [nmoles/min/g wet weight] | Tot. act. [4] [µmol/min] | Sp. act. [5] [nmoles/min/g wet weight] | Tot. act. [5] [µmol/min] | recovery at 4 h [6, 11] [%] | recovery at 4 h [6, 12] [%] | animals in which the administered dose reached the cecum by the time of sacrifice [6] | further results
1 | CC12C=CC(=O)C=C1CCC1C2C(O)CC2(C)C1CCC2(O)C(=O)COC1OC(CO)C(OC2OC(CO)C(O)C(O)C2O)C(O)C1O [Compound 13, 11 beta, 17 alpha-Dihydroxy-3, 20-dioxopregna-1,4-diene-21-yl beta-D-cellbioside] | 32.5 | 0.64 | only half that of glucoside 2 and one-fourth that of galactoside 10 | -0.56 | 26.0 | 0.11 | 109 | 2.2 | 7.5 | 0.01 |  |  |  | 
2 | CC12C=CC(=O)C=C1CCC1C2C(O)CC2(C)C1CCC2(O)C(=O)COC1OC(CO)C(O)C(O)C1O [Compound 2, 11 beta, 17 alpha-Dihydroxy-3, 20-dioxopregna-l, 4-dien-21-yl beta-D-glucopyranoside] | 56.8 | 1.0 |  |  | 12.2 | 0.07 | 265 | 6.6 | 6.8 | 0.12 | < 15 | 14.8 | eight of sixteen animals | time to reach the colon ([6]; rat, in vivo): 4 to 5 h; hydrolysis on incubation with homogenized rat feces ([7]; pH 7.5): extensive hydrolysis; relative rate of hydrolysis by commercial beta-glucosidase ([8]; listed as Glucoside 2): several orders of magnitude faster than was glucoside 1; relative rate of hydrolysis by commercial beta-glucosidase ([8]; listed as glucoside 2): much more active towards glucoside 2 than towards glucoside 1; Km ([9]; listed as glucoside 2): 4.5 µM; Vmax ([9]; listed as glucoside 2): 2.6 µM/min/g
3 | CC1CC2C3CCC4=CC(=O)C=CC4(C)C3(F)C(O)CC2(C)C1(O)C(=O)COC1OC(CO)C(O)C(O)C1O [Compound 1, 9 alpha-Fluoro-11 beta, 17 alpha-dihydroxy-16 alpha-methyl-3, 20-dioxopregna-l, 4-dien-21-yl beta-D-glucopyranoside] | 19.3 | 0.34 | more resistant to hydrolysis than the other prodrugs |  | 11.0 | 0.07 | 141 | 3.5 | 6.8 | 0.12 | ~60 | 59 | eleven of the sixteen animals | Recovery from the cecum ([6]; 3 h after administration of 7.5 mg of glucoside 1): 0.21 mg; Recovery from the small intestine ([6]; 3 h after intragastric administration of 7.5 mg of glucoside 1): 5.61 mg^a; Recovery from the cecum [6, 13]: 0.02 mg; Recovery from the small intestine [6, 13]: 5.00 mg; Recovery from the cecum [6, 14]: 0.23 mg; Recovery from the small intestine [6, 14]: 0.24 mg; Recovery from the cecum [6, 15]: 0.04 mg; Recovery from the small intestine [6, 15]: 0.94 mg; time to reach the colon ([6]; intragastric administration to rats): 4 to 5 h; part of an oral dose of glucoside that reached (was delivered to) the cecum ([6]; rat, 7.5 mg glucoside intragastric, estimated from unhydrolyzed glucoside in lower small intestine at 4 h, listed as glucoside 1): about half of the dose; recovery at 3 h ([6]; rat, in vivo, po, 3 h after oral administration, rat, read-out: dose recovered (intact) from the intestinal lumen): 78%; hydrolysis on incubation with homogenized rat feces ([7]; 37 C, 0.01 M phosphate buffer pH 7.5): extensive hydrolysis; Sp. act. ([1]; listed as glucoside 1): 19 nmoles/min/g wet weight; hydrolysis by DSI contents, comparison in words ([1]; listed as glucoside 1): about three times slower; Km ([9]; listed as glucoside 1): 2.5 µM; Vmax ([9]; listed as glucoside 1): 2.2 µM/min/g
4 | C[C@]12CCC(=O)C=C1CC[C@H]1[C@@H]3CC[C@](O)(C(=O)CO)[C@@]3(C)C[C@H](O)[C@@]12F [Compound 8, 9 alpha-Fluoro-11 beta, 17 alpha-21-trihydroxy-3, 20-dioxopregna-4-ene] |  |  |  | 1.73 |  |  |  |  |  |  |  |  |  | 
5 | C[C@]12C=CC(=O)C=C1CC[C@@H]1[C@@H]2[C@@H](O)C[C@@]2(C)[C@H]1CC[C@]2(O)C(=O)CO [Compound 4, 11 beta, 17 alpha-21-Trihydroxy-3, 20-dioxpregna-1,4-diene, reference compound] |  |  |  |  |  |  |  |  |  |  |  |  |  | site of absorption of the free steroid ([6]; rat): absorbed almost completely from the small intestine; site of absorption of the free steroid ([6]; rat, listed as prednisolone): absorbed almost exclusively from the small intestine; part of the oral dose of free steroid that reached the cecum ([6]; rat, in vivo, po): less than 1%; free steroid recovered in the cecum, as equivalent of the administered dose ([6]; rat, in vivo, po, 5 h): 11%; logD at 0.5 h ([2]; n-octanol / 0.01 M phosphate buffer pH 7.0, 37 C, agitated 30 min, read-out: Log P): 1.55
